Structures can show the parent of a compound that is named as a salt.
Test system: five organisms
Assay: Antimicrobial activity, sum of log drops of five organisms
Type: cell-based
Conditions: HA 1.7M relative to non-HA control and/or lower molecular weight HA compositions; Tris buffered

| Compound | reduction of the sum of the kill level by HA of MW 1.7M |
| --- | --- |
| CCCCC(CC)CNC(=N)NC(=N)NCCCCCCNC(=N)NC(=N)NCC(CC)CCCC (centres unmarked) [ALX, Alexidine Dihydrochloride] | about 2 log |
| poly[hexamethylene biguanide hydrochloride] [PHMB] | about 4 log |

From patent publication US20060100173A1, “Ophthalmic solution” (priority 2004, published 2006)
